In patent US20060286608A1, “Method for screening transglutaminase 2 inhibitor or activator” (priority 2005, published 2006):

Columns and labels:
BV-2 microglia = test: Nitric oxide measurement (Griess reaction) in LPS-activated BV-2 microglia; format: cell-based, murine; conditions: BV-2 microglia, after 24 hours of LPS treatment (100 μg/ml)
Protocol: (§1) The BV-2 cells were grown and maintained in DMEM (Dulvecco's modified Eagle's medium) (Invitrogen) supplemented with 10% FCS (fetal calf serum) and penicillin/streptomycin at 37° C. in a humidified incubator under 5% CO2. To activate BV-2, the cells were treated with LPS (100 μg/ml; Sigma) for 24 hours. After LPS treatment for 24 hours with or without inducible nitric-oxide synthase(iNOS) inhibitor, 0, 50, and 100 μM N^G-monomethyl-L-arginine(L-NMMA) (Sigma), proteins were extracted with radioimmunoprecipitation assay buffer (1× phosphate-buffered saline (PBS), 1% Nonidet P-40, 0.5% sodium deoxycholate and 0.1% SDS) containing protease inhibitors from BV-2 harvest, followed by analysis for TGase 2 activity.
Accumulated nitric oxide was measured in the cell supernatant after LPS treatment for 24 hours by Griess reaction. A 200 μl aliquot of the cell supernatant in each well of a 96-well microtiter plate was mixed with 100 μl of the Griess reagent [1% sulfanilamide (Fluka), 0.1% naphthylethylenediamine dihydrochloride (Fluka), 2.5% H3PO4], and the absorbance was read at 540 nm using a plate reader.

TGase 2 [1] = conditions: microglia after 24 hours of exposure to LPS; previous study (Park et al. 2004); cited from earlier work
TGase 2 [2] = test: Semi-quantitative RT-PCR of mouse TGase 2 in BV-2 cells; format: cell-based; conditions: BV-2 cells treated with LPS
Protocol: (§2) Semi-quantitative RT-PCR was performed using competitive mimic templates as internal controls. To prepare total RNA for RT-PCR, the cells were lysed with a TRIzol reagent. Samples of the total RNA were reverse-transcribed at 42° C. using the first strand synthesis kit (Promega) with avian myeloblastosis virus reverse transcriptase, and PCR was performed for the transcripts of iNOS and TGase 2 using corresponding specific primer sets. For each PCR, 1.5 mM MgCl2, 200 μM dNTP, 0.2 μM of each primer, 0.5 unit Taq polymerase, and a predetermined amount of a template were contained in a volume of 20 μl. The mimic templates of TGase 2 and iNOS were constructed by PCR. The mimics of mouse TGase 2 and mouse iNOS were prepared from 2014-2338 bp and 1451-2043 bp, respectively. RT-PCR products thus obtained were 526 bp for target TGase 2, 345 bp for mimic TGase 2, 593 bp for target iNOS, and 345 bp for mimic iNOS. For the RT-PCR, a primer set of SEQ. ID. NOS. 1 and 2, and a primer set of SEQ. ID. NOS.

TGase 2 [3] = test: TGase activity assay in LPS-activated BV-2 microglia; format: cell-based, murine; conditions: BV-2 microglia, after 24 hours of LPS treatment (100 μg/ml)
Protocol: as §1
Enzymatic activity was determined using a modified TGase assay method for measuring the incorporation of [1,4-^14C] putrescine into succinylated casein.

iNOS = test: Semi-quantitative RT-PCR of mouse iNOS in BV-2 cells; format: cell-based; conditions: BV-2 cells treated with LPS
Protocol: as §2

TGase 2 [4] = test: Immunohistochemical staining of TGase 2 in rat brain after LPS injection; format: in vivo; conditions: rats killed 1 hour after peritoneal injection of 2.5 mg/kg LPS, compared with saline alone
Protocol: Male Sprague-Dawley rats (Samtako, Osan, Korea) weighing 190-220 g were used as experimental models for intraperitoneal LPS injection as described previously. All experimental procedures were approved by the Seoul National University Care of Experimental Animals Committee. A solution of LPS (2.5 mg/kg) in 0.9% saline or 0.9% sterile saline was intraperitoneally injected into rats. To determine the effect of TGase inhibitors, rats were intraperitoneally injected with an R2 peptide (25 μM), an E2 peptide (25 μM, and dexamethasome (1 mg/kg) at 30 min before and at the time of LPS injection. Dexamethasome injection was used as a positive control.
After 1 hour of intraperitoneal injection with LPS or saline, rats were anesthetized with 1% ketamine (30 mg/kg) and xylazine hydrochloride (4 mg/kg). Brains were perfused through the heart with saline containing 0.5% sodium nitrite and 10 units/ml heparin, followed by perfusion with 4% paraformaldehyde in PBS (0.1 M, pH 7.2). Brains were removed, rinsed with PBS, and cryoprotected in sucrose. Sections were prepared on a sliding microtome (40 μm) at the level of the subfornical organ. A monoclonal antibody (TG-100; NeoMarkers) to TGase 2 was used to subject TGase 2 to immunohistochemical staining. Brain sections were blocked with 1% BSA in PBS and incubated overnight with a primary antibody solution (1:200 dilution). […]

lipopolysaccharide [LPS]
release of NO, increase (BV-2 microglia): 10 fold
TGase activity, increase (TGase 2 [1]): about 5 fold
TGase 2 by RT-PCR, increase (TGase 2 [2]): 3 fold
TGase 2 activity, increase (TGase 2 [3]): 5 fold
iNOS by RT-PCR, increase (iNOS): 10 fold
TGase 2 expression in brains (TGase 2 [4]): increased
